Data as given in US11554106B2, “Prevention of the risks associated with drug-induced QT interval prolongation by using a specific inhibitor of the production of ROS of miochondrial origin” (priority 2017, dated 2023).

Tests used:
[1] = test system: QT and QTc intervals; test: Moxifloxacin-induced QT prolongation in dogs (single-dose cross-over, telemetry ECG); assay type: in vivo, male Beagle dogs
Method: Principle: This is a single-dose study in dogs to examine the protective effect of ATT on QT prolongation induced by the intravenous (IV) injection of a dose of moxifloxacin, which is considered the reference substance (positive control).
Methodology: This is a cross-over and single-dose study conducted on 4 groups of 4 male Beagle dogs receiving, depending on the group: • Group 1—control group: intraperitoneal injection [i.p.] of the ATT vehicle; • Group 2—ATT, 5 mg/kg, administered i.p.; • Group 3—moxifloxacin, 15 mg/kg, administered as a slow IV injection in 5% lactic acid at 0.5 mL/kg; and • Group 4—an ATT dose of 5 mg/kg is injected i.p. 30 minutes before a slow IV dose of moxifloxacin of 15 mg/kg (see above).
In this study, each dog is equipped with an implantable teletransmitter of the “DSI radio-telemetry transmitter” type allowing continuous ECG recording over 24 hours in 10-minute sequences, including the measurement of PQ, QRS, QT and QTc spaces (correction according to the Van de Water formula), heart rate as well as systolic and diastolic BP and mean BP. ECG analysis is performed using Notocord Systems® ECG51a software and BP analysis using APR30a software, also from Notocord Systems®.

[2] = test system: 1Q site of the respiratory chain; settings: cited from earlier work
[3] = rats; cited from earlier work
[4] = test system: QTcF interval; test: TQT study of moxifloxacin-induced QT prolongation in healthy volunteers; assay type: in vivo, humans; settings: 75 mg ATT oral 60 minutes before 400 mg oral moxifloxacin
Method: Principle: Following the 2005 ICH E14 recommendation (FDA, 2005), a TQT study (“through QT study”) was conducted in healthy volunteers to evaluate the protective effect of ATT on QT prolongation induced by a single oral dose of 400 mg moxifloxacin.
Methodology: This was a single-dose, cross-over study conducted in healthy volunteers.
The volunteers, 16 men aged 18 to 40, were selected based on the following criteria: medical history, physical examination (including a BMI between 18 and 26 kg/m2), vital signs, clinical examinations, biological check-up and 12-lead ECG.
The selected volunteers were equipped with a Holter ECG for a 24-hour recording.
Four sequences were tested with a 7-day wash-out period between each: • 1st sequence—no treatment was given; • 2nd sequence—each volunteer received a 400 mg oral dose of moxifloxacin; • 3rd sequence—each volunteer took 75 mg of ATT by mouth (3 tablets of Sulfarlem® 25); and • 4th sequence—each volunteer received a 400 mg oral dose of moxifloxacin, 60 minutes after an oral dose of 75 mg ATT (3 tablets of Sulfarlem® 25). […]

[5] = 70 years marketed in France; cited from earlier work
[6] = test system: tenocytes; settings: pre-incubation of tenocytes with ATT at 10 μM for 3 hours; oxidative stress induced by FQ (ciprofloxacin, ofloxacin, pefloxacin); cited from earlier work
[7] = test system: acute organochlorine poisoning; test: Treatment of a cat with acute organochlorine poisoning; assay type: in vivo; settings: one cat, unpublished experiment
Text: Knowing that when ROS are overexpressed by mitochondria, this induces a simultaneous overproduction of cytosolic ROS, whose production source is NADPH oxidase (or NOX, usually NOX4 and NOX2), some authors conclude that NOX are the first responsible when in fact mitochondrial production is the culprit (Gosh R. et al., J. Clin. Diagn. Res., 2017, 11: BC09-BC12; Mangum L. C. et al., Chem. Res. Toxicol, 2015, 28: 570-584).

[8] = test system: human Jurkat T cells; settings: cited from earlier work
[9] = Solubility in water
[10] = marketed form; cited from earlier work

SMILES: COc1c(N2C[C@@H]3CCCN[C@@H]3C2)c(F)cc2c(=O)c(C(=O)O)cn(C3CC3)c12 [moxifloxacin]
- QT and QTc intervals ([1]; moxifloxacin 15 mg/kg slow IV alone): significantly increased

SMILES: O=[N+]([O-])c1ccc(Oc2ccc(S(=O)(=O)NC3CCCCC3)cc2)cc1 [NC-POBS, N-cyclohexyl-4-(4-nitrophenoxy)benzenesulfonamide]
- specific inhibition of mitochondrial ROS production [2]: specific inhibitor of mitochondrial ROS production

SMILES: COc1ccc(-c2cc(=S)ss2)cc1 [ATT, 5-(4-methoxyphenyl)-3H-1,2-dithiole-3-thione]
- Vd [3]: about 2 L/kg
- upper limit of the confidence interval of the effect of moxifloxacin on the QTcF interval [4]: less than 10 msec
- side effects relating to long-term use [5]: no side effects have been reported
- cellular production of ROS [6]: significantly reduces
- outcome of treatment of acute organochlorine poisoning [7]: successfully treated
- free radical scavenger and antioxidant activity [8]: powerful free radical scavenger and antioxidant
- QT and QTc intervals ([1]; ATT 5 mg/kg i.p. 30 minutes before moxifloxacin 15 mg/kg slow IV): maintained in the normal range

SMILES: Oc1ccc(-c2cc(=S)ss2)cc1 [ATX, 4-OH-anethole trithione]
- solubility in water [9]: insoluble in water
- circulating product found after oral administration of ATT [10]: most of the circulating product found is ATX
